Reference: patent publication US10806711B2 (priority 2011, dated 2020)
“Also recorded” adds a separate entry of the source.

Key:
C57 WT mice = experiment: Echocardiographic evaluation of contractility (EF) after bolus IV probenecid; type: in vivo, mouse; conditions: for peak change in EF: WT mice
Method: Echocardiographic evaluation. In order to obtain a dose response curve, male C57 WT (n=39) mice 12-16 weeks of age were anesthetized with isoflurane while intravenous jugular access (IV) was obtained under a microscope as previously described. Subsequently, an echocardiographic study with both M-mode and B-mode was obtained in parasternal long axis (PSLAX) as described below. […] Echocardiography—All echocardiographic studies were performed with a Vevo 2100 Ultrasound system (Visualsonics, Toronto Calif.) with an MS400 probe (30 MHz centerline frequency) and were post-processed at a separate workstation with Vevostrain software (Vevo 2100, v1.1.1 B1455, Visualsonic, Toronto, Canada). Images were obtained from PSLAX and short axis (SAX) views at depths between 2 and 10 mm in both M-mode and B-mode. All studies on mice exposed to I/R injury included M-mode, B-mode in PSLAX and strain imaging in SAX. While for the contractility studies, only M-mode measurements were obtained from the PSLAX. Strain imaging was performed from the B-mode images and regional radial strain and circumferential displacement were measured by regional wall and summed average from the SAX images. From the M-mode images, left ventricular cavity size and wall thickness was measured and the ejection fraction (EF) and fractional shortening (FS) calculations were obtained using the Vevo software. The change in the EF, FS, as well as strain derived parameters was obtained by subtracting the baseline value from each individual subject against subsequent time-points. In addition, the average change from baseline for each time point between 5 and 30 minutes was determined for each mouse, with measurements being taken every 5 minutes. These averages were compared between the different groups.

TRPV2^−/− mice = experiment: Contractility by echo after IP probenecid in TRPV2−/− mice; type: in vivo, mouse; conditions: 100 mg/kg IP
Method: WT, TRPV2^+/−, and TRPV2^−/− mice were monitored by echo for 30 minutes after injection as described below. Echocardiography—All echocardiographic studies were performed with a Vevo 2100 Ultrasound system (Visualsonics, Toronto Calif.) with an MS400 probe (30 MHz centerline frequency) and were post-processed at a separate workstation with Vevostrain software (Vevo 2100, v1.1.1 B1455, Visualsonic, Toronto, Canada). Images were obtained from PSLAX and short axis (SAX) views at depths between 2 and 10 mm in both M-mode and B-mode. All studies on mice exposed to I/R injury included M-mode, B-mode in PSLAX and strain imaging in SAX. While for the contractility studies, only M-mode measurements were obtained from the PSLAX. Strain imaging was performed from the B-mode images and regional radial strain and circumferential displacement were measured by regional wall and summed average from the SAX images. From the M-mode images, left ventricular cavity size and wall thickness was measured and the ejection fraction (EF) and fractional shortening (FS) calculations were obtained using the Vevo software. […] In addition, the average change from baseline for each time point between 5 and 30 minutes was determined for each mouse, with measurements being taken every 5 minutes. […]

WT mice = experiment: In vivo electrophysiology (electrocardiographic data during echo studies); design: species or system mouse
Method: In vivo electrophysiology—Electrocardiographic data was obtained during all echocardiographic studies. These studies were subsequently analyzed by an independent, blinded reader at all time points to evaluate for electrocardiographic changes and drug induced arrhythmias. The following parameters were measured: PR interval, RR interval, QRS width and were reported as peak change while the presence of supraventricular or ventricular arrhythmias was measured as a total observed over all images obtained in 30 minutes.

[1] = test system: phospholamban (PLN) and the ryanodine receptor (RyR), NCX, SERCA2a; experiment: Western blot of calcium handling proteins in Langendorff hearts; design: species or system mouse
Description: Western Blot Analysis—WT hearts used for protein expression were isolated from control mice (C57, 12-16 weeks old) from the Langendorff experiments. Total protein for calcium handling proteins was isolated by homogenizing whole hearts in an ice-cold buffer containing (in mM): 80 Imidazole, 300 sucrose, 1 DTT, 10 sodium metabisulfite, the protease inhibitor cocktail P8340 (Sigma, St. Louis, Mo.) and the phosphatase inhibitor cocktail set II (EMD, Merck, Darmstadt, Germany). Protein concentrations were determined using the BCA Protein Assay kit (Pierce, Thermo Scientific, Rockford, Ill.). Aliquots of protein were separated on SDS-PAGE gels (Novex gels, Invitrogen, Eugene, Oreg.) and then transferred to nitrocellulose membranes (Bio-Rad, Hercules, Calif.) and blocked with 5% BSA. The membranes were analyzed with primary antibodies. When appropriate, the membranes were cut in half to allow two different primary antibodies to be used. The top half would be used for one of the Ca^2+ handling proteins and the bottom half (less than 60 kD) would be used for the normalization protein, actin. In circumstances where it wasn't appropriate to cut the membrane, as the two proteins were too close in size, the membranes were stripped after the first protein. Membranes were also stripped between primary antibodies for phosphorylated proteins and corresponding total protein.

[2] = test system: isolated ventricular myocytes; experiment: Whole-cell patch clamp Ca2+ current recording; type: cell-based, mouse; conditions: myocytes held at −70 mV, 0.1 μM
Method: Electrophysiological recordings—Isolated myocytes were perfused with a Na^+- and K^+-free solution containing (mM): tetraethylammonium chloride (TEA-Cl) 137, CsCl 5.4, CaCl2 2, MgCl2 1, HEPES 5, glucose 10 and 4-aminopyridine 3 (pH=7.4). Whole-cell patch clamp recordings were performed with an Axopatch-1B amplifier. For Ca^2+ current recordings, glass pipettes were filled with solution containing (mM): aspartic acid 115, CsOH 115, CsCl 20, EGTA 11, HEPES 10, MgCl2 2.5, Na-GTP 0.1, Mg-ATP 2 (pH adjusted to 7.2 with CsOH). Probenecid was dissolved in a Na^+- and K^+-free solution which was used to perfuse the myocytes. Data were collected using pCLAMP9 software through an Axon Digidata 1322A data acquisition system. All experiments were performed at room temperature (24° C.).

healthy pig model = experiment: Cardiac function by echocardiography in healthy porcine model; type: in vivo

## CCCN(CCC)S(=O)(=O)c1ccc(C(=O)O)cc1 [probenecid]
C57 WT mice; 75 mg/kg bolus IV
  peak change in EF: 5.26±3.35
C57 WT mice; 100 mg/kg bolus IV
  peak change in EF: 8.40±2.80
C57 WT mice; 200 mg/kg IV, n=5
  time EF remained at an elevated state: at least 1 hour
C57 WT mice; 200 mg/kg IV, n=5, evaluated for a longer period (at least 1 hour)
  average increase in EF over baseline: 8.9±2.57
C57 WT mice; FIG. 1B legend
  echocardiographic changes (FIG. 1B): did not result in any echocardiographic changes
C57 WT mice; all doses at or above 75 mg/kg IV
  time after bolus injection at which increased contractility was noted: ≤ 5 min
C57 WT mice; bolus IV, measured at 5 minute intervals for 30 minutes total
  estimated EC50 of dose dependent increase in contractility (EF): 49.33 mg/kg
TRPV2^−/− mice
  cardiac response (contractility) during 30 minutes of echocardiogram: no discernable cardiac response; also recorded: absolutely no change in function
WT mice; 100 mg/kg IP
  electrocardiographic differences between WT and TRPV2−/− mice (FIG. 2D): no significant differences
WT mice; all doses
  changes in conduction intervals (RR, PR, QRS): no measured changes in any conduction intervals; also recorded: no significant changes in any of the measured electrocardiographic variables
WT mice; any dose of probenecid, observed over 30 minutes
  supraventricular or ventricular arrhythmias, premature beats: No supraventricular or ventricular arrhythmias or premature atrial or ventricular beats were observed; also recorded: no arrhythmias
[1]; hearts after 10^−6 M perfusion, data not shown
  expression levels of NCX and SERCA2a: no changes were found in the expression levels
[1]; hearts after 5 minute perfusion of 10^−6 M
  amount of phosphorylated or total phospholamban or ryanodine receptor: no significant changes
[2]
  inward Ca2+ current: No measurable inward Ca^2+ current was detected
Healthy pig model; bolus of 5 mg/kg IV, 5 mg/kg
  cardiac function (EF) by echocardiography: rapid increase in EF
Healthy pig model; continuous drip 5 mg/kg/hr (first 60 minutes) and 10 mg/kg/hr (second thirty minutes)
  cardiac function by echocardiography: improves function; also recorded: improvement in cardiac function
